Reference: ChEMBL document CHEMBL1124763, “Nucleoside conjugates. 11. Synthesis and antitumor activity of 1-beta-D-arabinofuranosylcytosine and cytidine conjugates of thioether lipids” (1990)

Experiments:
Type in all cases: functional
Mus musculus [1] = test: Survival time treated / survival time (T/C) for antitumor activity against Ip implanted L1210 / 0 lymphoid leukemia in mice at a dose of 300 mg/kg per day after treatment 5;17/8; conditions: route intraperitoneal
Mus musculus [2] = test: Range of survival days for antitumor activity against Ip implanted L1210 / 0 lymphoid leukemia in mice at a dose of 60 mg/kg per day after treatment 1-5;range is 16-37; conditions: route intraperitoneal
Mus musculus [3] = test: Range of survival days for antitumor activity against Ip implanted L1210 / 0 lymphoid leukemia in mice at a dose of 400 mg/kg per day after treatment 1;range is 16->45; conditions: route intraperitoneal
Mus musculus [4] = test: Increase of life span was determined against Ip implanted L1210 / ara-C lymphoid leukemia in mice at a dose of 167 mg/kg per day; conditions: route intraperitoneal
Mus musculus [5] = test: Survival time treated / survival time (T/C) for antitumor activity against Ip implanted L1210 / 0 lymphoid leukemia in mice at a dose of 100 mg/kg per day after treatment 1-5;36.5/8; conditions: route intraperitoneal
Mus musculus [6] = test: Increase of life span was determined against Ip implanted L1210 / ara-C lymphoid leukemia in mice at a dose of 60 mg/kg per day; conditions: route intraperitoneal
Mus musculus [7] = test: Range of survival days for antitumor activity against Ip implanted L1210 / 0 lymphoid leukemia in mice at a dose of 300 mg/kg per day after treatment 5;range is 15-21; conditions: route intraperitoneal
Mus musculus [8] = test: Increase of life span was determined against Ip implanted L1210 / 0 lymphoid leukemia in mice at a dose of 60 mg/kg per day after treatment 1-5; conditions: L1210/0, ip, route intraperitoneal
Mus musculus [9] = test: Increase of life span was determined against Ip implanted L1210 / ara-C lymphoid leukemia in mice at a dose of 300 mg/kg per day; conditions: route intraperitoneal
Mus musculus [10] = test: Increase of life span was determined against Ip implanted L1210 / 0 lymphoid leukemia in mice at a dose of 100 mg/kg per day after treatment 1-5; conditions: L1210/0, ip, route intraperitoneal
Mus musculus [11] = test: Survival time treated/survival time tested (T/C) for antitumor activity against Ip implanted L1210 / ara-C lymphoid leukemia in mice at a dose of 300 mg/kg per day; conditions: route intraperitoneal
Mus musculus [12] = test: Survival time treated / survival time (T/C) for antitumor activity against Ip implanted L1210 / 0 lymphoid leukemia in mice at a dose of 400 mg/kg per day after treatment 5;16.5/8; conditions: route intraperitoneal
Mus musculus [13] = test: Survival time treated / survival time (T/C) for antitumor activity against Ip implanted L1210 / 0 lymphoid leukemia in mice at a dose of 400 mg/kg per day after treatment 1;27.5/7; conditions: route intraperitoneal
Mus musculus [14] = test: Increase of life span was determined against Ip implanted L1210 / 0 lymphoid leukemia in mice at a dose of 300 mg/kg per day after treatment 5; conditions: L1210/0, ip, route intraperitoneal
Mus musculus [15] = test: Survival time treated / survival time (T/C) for antitumor activity against Ip implanted L1210 / 0 lymphoid leukemia in mice at a dose of 60 mg/kg per day after treatment 1-5;26.5/8; conditions: route intraperitoneal
Mus musculus [16] = test: Increase of life span was determined against Ip implanted L1210 / 0 lymphoid leukemia in mice at a dose of 400 mg/kg per day after treatment 5; conditions: L1210/0, ip, route intraperitoneal
Mus musculus [17] = test: Range of survival days for antitumor activity against Ip implanted L1210 / ara-C lymphoid leukemia in mice at a dose of 60 mg/kg per day; conditions: route intraperitoneal
Mus musculus [18] = test: Range of survival days for antitumor activity against Ip implanted L1210 / 0 lymphoid leukemia in mice at a dose of 400 mg/kg per day after treatment 5;[…]; conditions: route intraperitoneal
Mus musculus [19] = test: Increase of life span was determined against Ip implanted L1210 / 0 lymphoid leukemia in mice at a dose of 400 mg/kg per day after treatment 1; conditions: L1210/0, ip, route intraperitoneal
Mus musculus [20] = test: Range of survival days for antitumor activity against Ip implanted L1210 / 0 lymphoid leukemia in mice at a dose of 100 mg/kg per day after treatment 1-5;range is 14->45; conditions: route intraperitoneal
Mus musculus [21] = test: Range of survival days for antitumor activity against Ip implanted L1210 / ara-C lymphoid leukemia in mice at a dose of 167 mg/kg per day; conditions: route intraperitoneal
Mus musculus [22] = test: Increase of life span was determined against Ip implanted L1210 / 0 lymphoid leukemia in mice at a dose of 300 mg/kg per day after treatment 1; conditions: L1210/0, ip, route intraperitoneal
Mus musculus [23] = test: Range of survival days for antitumor activity against Ip implanted L1210 / 0 lymphoid leukemia in mice at a dose of 300 mg/kg per day after treatment 1;range is 18-30; conditions: route intraperitoneal
Mus musculus [24] = test: Survival time treated / survival time (T/C) for antitumor activity against Ip implanted L1210 / 0 lymphoid leukemia in mice at a dose of 300 mg/kg per day after treatment 1;25/7; conditions: route intraperitoneal
Mus musculus [25] = test: Survival time treated/survival time tested (T/C) for antitumor activity against Ip implanted L1210 / ara-C lymphoid leukemia in mice at a dose of 60 mg/kg per day; conditions: route intraperitoneal
Mus musculus [26] = test: Survival time treated/survival time tested (T/C) for antitumor activity against Ip implanted L1210 / ara-C lymphoid leukemia in mice at a dose of 167 mg/kg per day; conditions: route intraperitoneal
Mus musculus [27] = test: Range of survival days for antitumor activity against Ip implanted L1210 / ara-C lymphoid leukemia in mice at a dose of 300 mg/kg per day; conditions: route intraperitoneal

`CCCCCCCCCCCCCCCCSCC(COP(=O)(O)OP(=O)(O)OC[C@H]1OC(n2ccc(N)nc2=O)[C@@H](O)[C@@H]1O)OC(=O)CCCCCCCCCCCCCCC` (mixture of isomers) was tested, and the T/C (Mus musculus [1]) was 17, the “Range of survival days” value (Mus musculus [2]) was 16 and the “Range of survival days” value (Mus musculus [3]) was >16. For the same molecule, the ILS at 167 mg/kg/day (Mus musculus [4]) was 310%, the T/C (Mus musculus [5]) was 36.5 and the ILS at 60 mg/kg/day (Mus musculus [6]) was > 356%. For the same molecule, the “Range of survival days” value (Mus musculus [7]) was 15, the ILS at 60 mg/kg/day (Mus musculus [8]) was 231% and the ILS at 300 mg/kg/day (Mus musculus [9]) was > 400%. For the same molecule, the ILS at 100 mg/kg/day (Mus musculus [10]) was 356%, the T/C (Mus musculus [11]) was >45 and the T/C (Mus musculus [12]) was 16.5. For the same molecule, the T/C (Mus musculus [13]) was 27.5, the ILS at 300 mg/kg/day (Mus musculus [14]) was 113% and the T/C (Mus musculus [15]) was 26.5. For the same molecule, the ILS at 400 mg/kg/day (Mus musculus [16]) was 106%, the Range (Mus musculus [17]) was >29 and the “Range of survival days” value (Mus musculus [18]) was 15. The ILS at 400 mg/kg/day (Mus musculus [19]) was 293%, the “Range of survival days” value (Mus musculus [20]) was >14 and the Range (Mus musculus [21]) was >7. For the same molecule, the ILS at 300 mg/kg/day (Mus musculus [22]) was 257%, the “Range of survival days” value (Mus musculus [23]) was 18 and the T/C (Mus musculus [24]) was 25. For the same molecule, the T/C (Mus musculus [25]) was >41, the T/C (Mus musculus [26]) was 41 and the Range (Mus musculus [27]) was >45.
